Source: patent US9260435B2, “Substituted imidazopyrazines as Akt kinase inhibitors” (Bayer Intellectual Property GmbH, priority 2012, dated 2016)

Tests used:
[1] = target: His-tagged human recombinant kinase full-length Akt1 (Homo sapiens (Human), UniProt P31749); experiment: Akt1 kinase assay (TR-FRET); type: biochemical; conditions: 10 μM ATP, read-out: Akt1, median IC50
Excerpt: Biological Assay 1.0: Akt1 Kinase Assay
Akt1 inhibitory activity of compounds of the present invention was quantified employing the Akt1 TR-FRET assay as described in the following paragraphs.
His-tagged human recombinant kinase full-length Akt1 expressed in insect cells was purchased form Invitrogen (part number PV 3599). As substrate for the kinase reaction the biotinylated peptide biotin-Ahx-KKLNRTLSFAEPG (C-terminus in amide form) was used which can be purchased e.g. from the company Biosynthan GmbH (Berlin-Buch, Germany).
For the assay 50 nl of a 100 fold concentrated solution of the test compound in DMSO was pipetted into a black low volume 384 well microtiter plate (Greiner Bio-One, Frickenhausen, Germany), 2 μl of a solution of Akt1 in assay buffer [50 mM TRIS/HCl pH 7.5, 5 mM MgCl2, 1 mM dithiothreitol, 0.02% (v/v) Triton X-100 (Sigma)] were added and the mixture was incubated for 15 min at 22° C. to allow prebinding of the test compounds to the enzyme before the start of the kinase reaction. Then the kinase reaction was started by the addition of 3 μl of a solution of adenosine-tri-phosphate (ATP, 16.7 μM=>final conc. in the 5 μl assay volume is 10 μM) and substrate (1.67 μM=>final conc. in the 5 μl assay volume is 1 μM) in assay buffer and the resulting mixture was incubated for a reaction time of 60 min at 22° C. The concentration of Akt1 in the assay was adjusted depending of the activity of the enzyme lot and was chosen appropriate to have the assay in the linear range, typical enzyme concentrations were in the range of about 0.05 ng/μl (final conc. in the 5 μl assay volume).
The reaction was stopped by the addition of 5 μl of a solution of HTRF detection reagents (200 nM streptavidine-XL665 [Cisbio] and 1.5 nM anti-phosho-Serine antibody [Millipore, cat. #35-001] and 0.75 nM LANCE Eu-W 1024 labeled anti-mouse IgG antibody [Perkin Elmer]) in an aqueous EDTA-solution (100 mM EDTA, 0.1% (w/v) bovine serum albumin in 50 mM HEPES/NaOH pH 7.5).
The resulting mixture was incubated 1 h at 22° C. to allow the binding of the biotinylated phosphorylated peptide to the streptavidine-XL665 and the antibodies. Subsequently the amount of phosphorylated substrate was evaluated by measurement of the resonance energy transfer from the anti-mouse-IgG-Eu-Chelate to the streptavidine-XL665. Therefore, the fluorescence emissions at 620 nm and 665 nm after excitation at 350 nm was measured in a HTRF reader, e.g. a Rubystar (BMG Labtechnologies, Offenburg, Germany) or a Viewlux (Perkin-Elmer). The ratio of the emissions at 665 nm and at […] was taken as the measure for the amount of phosphorylated substrate. The data were normalised (enzyme reaction without inhibitor=0% inhibition, all other assay components but no enzyme=100% inhibition).

phospho-AKT at S473 = experiment: Cellular p-AKT1/2/3-S473 assay in KPL-4 cells; type: cell-based; conditions: Homo sapiens, KPL4; KPL-4 breast tumour cell line, 2 hours treatment; read-out: pAKT-S743 median IC50
Protocol: The phospho-substrates of PI3K-AKT-mTOR axis were used as the readouts to reflect pathway inhibition. Cells were seeded at 60-80% confluency per well in 96-well cell culture plates. After overnight incubation at 37° C. 5% CO2, cells were treated with compounds and vehicle at 37° C. for 2 hours. […] All measurements where at least done in duplicates and confirmed by independent repetition. Alternatively pAKT-S473 was measured using the “Akt Duplex” of the MULTI-SPOT® Assay System (Fa. Meso Scale Discovery, Cat# N41100B-1) following manufacturers instructions. Each assay used 20 μg of protein extract and measured total AKT and p-AKT content simultaneously in one well. All measurements where at least done in duplicates and confirmed by independent repetition. Values for P-AKT are expressed as percentage of P-AKT level compared to total-AKT content of the extracts.

[2] = tested on: KPL-4 breast cancer cell line; experiment: Tumor cell proliferation assay (CellTiter-Glo, 72 h), KPL-4; type: cell-based; conditions: Homo sapiens, KPL4, 72 h drug exposure; for inhibition at 1.67 µM: read-out: KPL-4 median inhibition at 1.67 μM (%)
Protocol: Biological Assay 4.0: Tumor Cell Proliferation Assays
Compounds were tested in a cell-based assay that measures the capacity of the compounds to inhibit tumour cell proliferation following a 72 h drug exposure. Cell viability is determined using CellTiter-Glow® (CTG, Promega, cat# G7571/2/3). The CellTiter-Glo® Luminescent Cell Viability Assay is a homogeneous method to determine the number of viable cells in culture. Detection is based on using the luciferase reaction to measure the amount of ATP from viable cells. The amount of ATP in cells correlates with cell viability. Within minutes after a loss of membrane integrity, cells lose the ability to synthesize ATP, and endogenous ATPases destroy any remaining ATP; thus the levels of ATP fall precipitously.
Cells were plated at 3000-5000 cells/well (depending on the cell lines) in 90 μL growth medium on MTPs (Corning; #3603, black plate, clear flat bottom). For each cell line assayed, cells were plated onto a separate plate for determination of […] at t=0 hour and t=72 hour time points. Following overnight incubation at 37° C., chemiluminescence values for the t=0 samples were determined after adding 10 μl medium and 100 μl CTG solution according to manufacture protocol. Plates for the t=72 hour time points were treated with compounds diluted into growth medium at ten times final concentration added in 10 μL to the cell culture plate. Cells were then incubated for 72 hours at 37° C. Chemiluminescence values for the t=72 hour samples were determined. […] Experiments were controlled using a reference compound as standard.
Preferred compounds of the present invention show in this assay an inhibition of cell growth of cell lines such as the KPL-4 breast cancer cell line and the MCF-7 breast tumour cell line ([…], hormone dependent) with a median IC50 of <10 μM, more preferably, median IC50≦1 μM.

Sequence of His-tagged human recombinant kinase full-length Akt1 (P31749 whole entry): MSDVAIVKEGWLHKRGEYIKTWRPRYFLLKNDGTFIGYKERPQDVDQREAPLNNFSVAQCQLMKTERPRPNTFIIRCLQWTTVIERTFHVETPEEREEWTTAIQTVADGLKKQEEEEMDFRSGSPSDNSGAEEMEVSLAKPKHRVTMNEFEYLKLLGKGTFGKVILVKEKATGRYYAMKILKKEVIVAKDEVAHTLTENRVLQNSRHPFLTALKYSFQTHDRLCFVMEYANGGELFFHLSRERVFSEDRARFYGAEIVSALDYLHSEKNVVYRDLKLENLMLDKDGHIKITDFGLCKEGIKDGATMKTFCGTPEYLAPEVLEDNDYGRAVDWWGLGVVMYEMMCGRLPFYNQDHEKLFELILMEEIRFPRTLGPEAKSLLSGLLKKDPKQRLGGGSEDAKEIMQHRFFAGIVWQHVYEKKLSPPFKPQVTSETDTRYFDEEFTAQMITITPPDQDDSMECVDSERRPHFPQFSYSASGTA

SMILES	IC50 [1] [µM]	IC50 (phospho-AKT at S473) [µM]	IC50 [2] [µM]	inhibition at 1.67 µM [2] [%]
CCc1cn2c(-c3ccccc3)c(-c3ccc(C4(N)CCC4)cc3)nc2c(OC)n1 [Example 4, 1-[4-(6-Ethyl-8-methoxy-3-phenylimidazo[1,2-a]pyrazin-2-yl)phenyl]cyclobutanamine]	0.11	0.085	1.2	64.4
NC(=O)c1cn2c(-c3ccccc3)c(-c3ccc(C4(N)CCC4)cc3)nc2cn1 [Example 6, 2-[4-(1-Aminocyclobutyl)phenyl]-3-phenylimidazo[1,2-a]pyrazine-6-carboxamide]	0.11	0.02	0.29	79.5
COC(=O)c1cn2c(-c3ccccc3)c(-c3ccc(C4(N)CCC4)cc3)nc2c(OC)n1 [Example 7, Methyl 2-[4-(1-aminocyclobutyl)phenyl]-8-methoxy-3-phenylimidazo[1,2-a]pyrazine-6-carboxylate]	0.064	0.044	5.5	22

Stronger by IC50 [1], values ahead:

IC50 [1] [µM]	IC50 (phospho-AKT at S473) [µM]	IC50 [2] [µM]	SMILES	inhibition at 1.67 µM [2] [%]
0.061	0.027	0.71	Cc1cn2c(-c3ccccc3)c(-c3ccc(C4(N)CCC4)cc3)nc2c(C)n1 [Example 2, 1-[4-(6,8-Dimethyl-3-phenylimidazo[1,2-a]pyrazin-2-yl)phenyl]-cyclobutanamine]	68
0.029	0.0075	0.15	COc1nc(C(N)=O)cn2c(-c3ccccc3)c(-c3ccc(C4(N)CCC4)cc3)nc12 [Example 8, 2-[4-(1-Aminocyclobutyl)phenyl]-8-methoxy-3-phenylimidazo[1,2-a]pyrazine-6-carboxamide]	83.6
0.022	0.19	1.7	COc1nc(Br)cn2c(-c3ccccc3)c(-c3ccc(C4(N)CCC4)cc3)nc12 [Example 3, 1-[4-(6-Bromo-8-methoxy-3-phenylimidazo[1,2-a]pyrazin-2-yl)phenyl]cyclobutanamine]	57
